# What was measured:
# Streptococcus pneumoniae [1] = test: Antibacterial activity against erythromycin-susceptible Streptococcus pneumoniae ATCC 49619
# Streptococcus pneumoniae [2] = test: Antibacterial activity against erythromycin-resistant Streptococcus pneumoniae A22072 encoded by mef gene
# Streptococcus pneumoniae [3] = test: Antibacterial activity against erythromycin-resistant Streptococcus pneumoniae B1 encoded by erm gene
# Streptococcus pneumoniae [4] = test: Antibacterial activity against erythromycin-resistant Streptococcus pneumoniae AB11 encoded by erm and mef gene
compound,measurement,setting,value
CC[C@H]1OC(=O)[C@H](C)[C@@H](O[C@H]2C[C@@](C)(OC)[C@@H](OC(=O)NCc3ccc(OC)cc3)[C@H](C)O2)[C@H](C)[C@@H](O[C@@H]2O[C@H](C)C[C@H](N(C)C)[C@H]2O)[C@@](C)(O)C[C@@H](C)CN(C)[C@H](C)[C@@H](O)[C@]1(C)O,MIC,Streptococcus pneumoniae [1],0.12 µg/mL
same,MIC,Streptococcus pneumoniae [2],4 µg/mL
same,MIC,Streptococcus pneumoniae [3],64 µg/mL
same,MIC,Streptococcus pneumoniae [4],32 µg/mL
CC[C@H]1OC(=O)[C@H](C)[C@@H](O[C@H]2C[C@@](C)(OC)[C@@H](OC(=O)NCc3ccc(F)cc3)[C@H](C)O2)[C@H](C)[C@@H](O[C@@H]2O[C@H](C)C[C@H](N(C)C)[C@H]2O)[C@@](C)(O)C[C@@H](C)CN(C)[C@H](C)[C@@H](O)[C@]1(C)O,MIC,Streptococcus pneumoniae [1],< 0.03 µg/mL
same,MIC,Streptococcus pneumoniae [2],0.25 µg/mL
same,MIC,Streptococcus pneumoniae [3],4 µg/mL
same,MIC,Streptococcus pneumoniae [4],16 µg/mL
CC[C@H]1OC(=O)[C@H](C)[C@@H](O[C@H]2C[C@@](C)(OC)[C@@H](OC(=O)NCCc3ccccc3Cl)[C@H](C)O2)[C@H](C)[C@@H](O[C@@H]2O[C@H](C)C[C@H](N(C)C)[C@H]2O)[C@@](C)(O)C[C@@H](C)CN(C)[C@H](C)[C@@H](O)[C@]1(C)O,MIC,Streptococcus pneumoniae [1],< 0.03 µg/mL
same,MIC,Streptococcus pneumoniae [2],1 µg/mL
same,MIC,Streptococcus pneumoniae [3],8 µg/mL
same,MIC,Streptococcus pneumoniae [4],8 µg/mL
CC[C@H]1OC(=O)[C@H](C)[C@@H](O[C@H]2C[C@@](C)(OC)[C@@H](OC(=O)NCCc3ccc(O)cc3)[C@H](C)O2)[C@H](C)[C@@H](O[C@@H]2O[C@H](C)C[C@H](N(C)C)[C@H]2O)[C@@](C)(O)C[C@@H](C)CN(C)[C@H](C)[C@@H](O)[C@]1(C)O,MIC,Streptococcus pneumoniae [1],< 0.03 µg/mL
same,MIC,Streptococcus pneumoniae [2],0.5 µg/mL
same,MIC,Streptococcus pneumoniae [3],4 µg/mL
same,MIC,Streptococcus pneumoniae [4],2 µg/mL
CC[C@H]1OC(=O)[C@H](C)[C@@H](O[C@H]2C[C@@](C)(OC)[C@@H](OC(=O)NCc3ccccc3)[C@H](C)O2)[C@H](C)[C@@H](O[C@@H]2O[C@H](C)C[C@H](N(C)C)[C@H]2O)[C@@](C)(O)C[C@@H](C)CN(C)[C@H](C)[C@@H](O)[C@]1(C)O,MIC,Streptococcus pneumoniae [1],< 0.03 µg/mL
same,MIC,Streptococcus pneumoniae [2],0.06 µg/mL
same,MIC,Streptococcus pneumoniae [3],16 µg/mL
same,MIC,Streptococcus pneumoniae [4],64 µg/mL
C=CCNC(=O)O[C@H]1[C@H](C)O[C@@H](O[C@H]2[C@H](C)[C@@H](O[C@@H]3O[C@H](C)C[C@H](N(C)C)[C@H]3O)[C@@](C)(O)C[C@@H](C)CN(C)[C@H](C)[C@@H](O)[C@](C)(O)[C@@H](CC)OC(=O)[C@@H]2C)C[C@@]1(C)OC,MIC,Streptococcus pneumoniae [1],< 0.03 µg/mL
same,MIC,Streptococcus pneumoniae [2],1 µg/mL
same,MIC,Streptococcus pneumoniae [3],16 µg/mL
same,MIC,Streptococcus pneumoniae [4],32 µg/mL
CC[C@H]1OC(=O)[C@H](C)[C@@H](O[C@H]2C[C@@](C)(OC)[C@@H](OC(=O)NCc3ccc(OC)cc3)[C@H](C)O2)[C@H](C)[C@@H](O[C@@H]2O[C@H](C)C[C@H](N(C)C)[C@H]2O)[C@@](C)(O)C[C@@H](C)CN(C)[C@H](C)[C@H]2OC(=O)O[C@@]21C,MIC,Streptococcus pneumoniae [1],< 0.03 µg/mL
same,MIC,Streptococcus pneumoniae [2],0.25 µg/mL
same,MIC,Streptococcus pneumoniae [3],8 µg/mL
same,MIC,Streptococcus pneumoniae [4],16 µg/mL
CC[C@H]1OC(=O)[C@H](C)[C@@H](O[C@H]2C[C@@](C)(OC)[C@@H](OC(=O)NCCc3ccccc3)[C@H](C)O2)[C@H](C)[C@@H](O[C@@H]2O[C@H](C)C[C@H](N(C)C)[C@H]2O)[C@@](C)(O)C[C@@H](C)CN(C)[C@H](C)[C@H]2OC(=O)O[C@@]21C,MIC,Streptococcus pneumoniae [1],0.06 µg/mL
same,MIC,Streptococcus pneumoniae [2],0.06 µg/mL
same,MIC,Streptococcus pneumoniae [3],8 µg/mL
same,MIC,Streptococcus pneumoniae [4],2 µg/mL
CC[C@H]1OC(=O)[C@H](C)[C@@H](O[C@H]2C[C@@](C)(OC)[C@@H](OC(=O)NC(C)C)[C@H](C)O2)[C@H](C)[C@@H](O[C@@H]2O[C@H](C)C[C@H](N(C)C)[C@H]2O)[C@@](C)(O)C[C@@H](C)CN(C)[C@H](C)[C@@H](O)[C@]1(C)O,MIC,Streptococcus pneumoniae [1],0.12 µg/mL
same,MIC,Streptococcus pneumoniae [2],8 µg/mL
same,MIC,Streptococcus pneumoniae [3],128 µg/mL
same,MIC,Streptococcus pneumoniae [4],256 µg/mL
CC[C@H]1OC(=O)[C@H](C)[C@@H](O[C@H]2C[C@@](C)(OC)[C@@H](OC(=O)NCCc3ccc(O)cc3)[C@H](C)O2)[C@H](C)[C@@H](O[C@@H]2O[C@H](C)C[C@H](N(C)C)[C@H]2O)[C@@](C)(O)C[C@@H](C)CN(C)[C@H](C)[C@H]2OC(=O)O[C@@]21C,MIC,Streptococcus pneumoniae [1],< 0.03 µg/mL
same,MIC,Streptococcus pneumoniae [2],1 µg/mL
same,MIC,Streptococcus pneumoniae [3],8 µg/mL
same,MIC,Streptococcus pneumoniae [4],4 µg/mL
CC[C@H]1OC(=O)[C@H](C)[C@@H](O[C@H]2C[C@@](C)(OC)[C@@H](OC(=O)NCc3ccc(F)cc3)[C@H](C)O2)[C@H](C)[C@@H](O[C@@H]2O[C@H](C)C[C@H](N(C)C)[C@H]2O)[C@@](C)(O)C[C@@H](C)CN(C)[C@H](C)[C@H]2OC(=O)O[C@@]21C,MIC,Streptococcus pneumoniae [1],0.06 µg/mL
same,MIC,Streptococcus pneumoniae [2],0.06 µg/mL
same,MIC,Streptococcus pneumoniae [3],8 µg/mL
same,MIC,Streptococcus pneumoniae [4],4 µg/mL
CC[C@H]1OC(=O)[C@H](C)[C@@H](O[C@H]2C[C@@](C)(OC)[C@@H](OC(=O)NCCc3ccccc3Cl)[C@H](C)O2)[C@H](C)[C@@H](O[C@@H]2O[C@H](C)C[C@H](N(C)C)[C@H]2O)[C@@](C)(O)C[C@@H](C)CN(C)[C@H](C)[C@H]2OC(=O)O[C@@]21C,MIC,Streptococcus pneumoniae [1],0.06 µg/mL
same,MIC,Streptococcus pneumoniae [2],0.25 µg/mL
same,MIC,Streptococcus pneumoniae [3],8 µg/mL
same,MIC,Streptococcus pneumoniae [4],2 µg/mL
CC[C@H]1OC(=O)[C@H](C)[C@@H](O[C@H]2C[C@@](C)(OC)[C@@H](OC(=O)NCc3ccccc3)[C@H](C)O2)[C@H](C)[C@@H](O[C@@H]2O[C@H](C)C[C@H](N(C)C)[C@H]2O)[C@@](C)(O)C[C@@H](C)CN(C)[C@H](C)[C@H]2OC(=O)O[C@@]21C,MIC,Streptococcus pneumoniae [1],< 0.03 µg/mL
same,MIC,Streptococcus pneumoniae [2],0.12 µg/mL
same,MIC,Streptococcus pneumoniae [3],8 µg/mL
same,MIC,Streptococcus pneumoniae [4],8 µg/mL
CC[C@H]1OC(=O)[C@H](C)[C@@H](O[C@H]2C[C@@](C)(OC)[C@@H](OC(=O)NCCc3ccc4c(c3)OCO4)[C@H](C)O2)[C@H](C)[C@@H](O[C@@H]2O[C@H](C)C[C@H](N(C)C)[C@H]2O)[C@@](C)(O)C[C@@H](C)CN(C)C(C)[C@H]2OC(=O)O[C@@]21C (stereo partly drawn),MIC,Streptococcus pneumoniae [1],< 0.03 µg/mL
same,MIC,Streptococcus pneumoniae [2],0.06 µg/mL
same,MIC,Streptococcus pneumoniae [3],4 µg/mL
same,MIC,Streptococcus pneumoniae [4],2 µg/mL
CC[C@H]1OC(=O)[C@H](C)[C@@H](O[C@H]2C[C@@](C)(OC)[C@@H](OC(=O)NCCc3ccccc3)[C@H](C)O2)[C@H](C)[C@@H](O[C@@H]2O[C@H](C)C[C@H](N(C)C)[C@H]2O)[C@@](C)(O)C[C@@H](C)CN(C)[C@H](C)[C@@H](O)[C@]1(C)O,MIC,Streptococcus pneumoniae [1],0.06 µg/mL
same,MIC,Streptococcus pneumoniae [2],1 µg/mL
same,MIC,Streptococcus pneumoniae [3],8 µg/mL
same,MIC,Streptococcus pneumoniae [4],32 µg/mL
CC[C@H]1OC(=O)[C@H](C)[C@@H](O[C@H]2C[C@@](C)(OC)[C@@H](OC(=O)NCCc3ccc4c(c3)OCO4)[C@H](C)O2)[C@H](C)[C@@H](O[C@@H]2O[C@H](C)C[C@H](N(C)C)[C@H]2O)[C@@](C)(O)C[C@@H](C)CN(C)[C@H](C)[C@@H](O)[C@]1(C)O,MIC,Streptococcus pneumoniae [1],< 0.03 µg/mL
same,MIC,Streptococcus pneumoniae [2],0.5 µg/mL
same,MIC,Streptococcus pneumoniae [3],8 µg/mL
same,MIC,Streptococcus pneumoniae [4],8 µg/mL
CCCNC(=O)O[C@H]1[C@H](C)O[C@@H](O[C@H]2[C@H](C)[C@@H](O[C@@H]3O[C@H](C)C[C@H](N(C)C)[C@H]3O)[C@@](C)(O)C[C@@H](C)CN(C)[C@H](C)[C@@H](O)[C@](C)(O)[C@@H](CC)OC(=O)[C@@H]2C)C[C@@]1(C)OC,MIC,Streptococcus pneumoniae [1],0.12 µg/mL
same,MIC,Streptococcus pneumoniae [2],4 µg/mL
same,MIC,Streptococcus pneumoniae [3],64 µg/mL
same,MIC,Streptococcus pneumoniae [4],64 µg/mL
CCCCNC(=O)O[C@H]1[C@H](C)O[C@@H](O[C@H]2[C@H](C)[C@@H](O[C@@H]3O[C@H](C)C[C@H](N(C)C)[C@H]3O)[C@@](C)(O)C[C@@H](C)CN(C)[C@H](C)[C@@H](O)[C@](C)(O)[C@@H](CC)OC(=O)[C@@H]2C)C[C@@]1(C)OC,MIC,Streptococcus pneumoniae [1],< 0.03 µg/mL
same,MIC,Streptococcus pneumoniae [2],1 µg/mL
same,MIC,Streptococcus pneumoniae [3],8 µg/mL
same,MIC,Streptococcus pneumoniae [4],128 µg/mL
CCCCCNC(=O)O[C@H]1[C@H](C)O[C@@H](O[C@H]2[C@H](C)[C@@H](O[C@@H]3O[C@H](C)C[C@H](N(C)C)[C@H]3O)[C@@](C)(O)C[C@@H](C)CN(C)[C@H](C)[C@@H](O)[C@](C)(O)[C@@H](CC)OC(=O)[C@@H]2C)C[C@@]1(C)OC,MIC,Streptococcus pneumoniae [1],< 0.03 µg/mL
same,MIC,Streptococcus pneumoniae [2],0.5 µg/mL
same,MIC,Streptococcus pneumoniae [3],8 µg/mL
same,MIC,Streptococcus pneumoniae [4],32 µg/mL
CC[C@H]1OC(=O)[C@H](C)[C@@H](O[C@H]2C[C@@](C)(OC)[C@@H](OC(=O)NC3CCCCC3)[C@H](C)O2)[C@H](C)[C@@H](O[C@@H]2O[C@H](C)C[C@H](N(C)C)[C@H]2O)[C@@](C)(O)C[C@@H](C)CN(C)[C@H](C)[C@@H](O)[C@]1(C)O,MIC,Streptococcus pneumoniae [1],0.12 µg/mL
same,MIC,Streptococcus pneumoniae [2],8 µg/mL
same,MIC,Streptococcus pneumoniae [3],32 µg/mL
same,MIC,Streptococcus pneumoniae [4],128 µg/mL
CC[C@H]1OC(=O)[C@H](C)[C@@H](O[C@H]2C[C@@](C)(OC)[C@@H](O)[C@H](C)O2)[C@H](C)[C@@H](O[C@@H]2O[C@H](C)C[C@H](N(C)C)[C@H]2O)[C@](C)(O)C[C@@H](C)CN(C)[C@H](C)[C@@H](O)[C@]1(C)O [AZITHROMYCIN],MIC,Streptococcus pneumoniae [1],< 0.03 µg/mL
same,MIC,Streptococcus pneumoniae [2],4 µg/mL
same,MIC,Streptococcus pneumoniae [3],128 µg/mL
same,MIC,Streptococcus pneumoniae [4],256 µg/mL
CC[C@H]1OC(=O)[C@H](C)[C@@H](O[C@H]2C[C@@](C)(OC)[C@@H](O)[C@H](C)O2)[C@H](C)[C@@H](O[C@@H]2O[C@H](C)C[C@H](N(C)C)[C@H]2O)[C@](C)(OC)C[C@@H](C)C(=O)[C@H](C)[C@@H](O)[C@]1(C)O [CLARITHROMYCIN],MIC,Streptococcus pneumoniae [1],< 0.03 µg/mL
same,MIC,Streptococcus pneumoniae [2],4 µg/mL
same,MIC,Streptococcus pneumoniae [3],64 µg/mL
same,MIC,Streptococcus pneumoniae [4],128 µg/mL
